From patent US9260481B2, “Peptide derivatives as antibiotics” (priority 2011, dated 2016)
≈ marks a conversion by molar mass, not a printed value. Read-outs that look alike come from different tables or passages of the source. Numbered stars: 1 amine (or outer) side, 2 acyl side, 3 side chain; on linkers, the order of the positions; unused ones are H or OH. Square brackets hold non-standard residues; d marks the D form. Peptide text beside a SMILES is read from it. * marks the point of attachment. ξ: configuration not given here. X1 = NCC(O)CCC(N[*:1])C(=O)[*:2]; ΔZArg = N=C(N)NCC/C=C(\N)C(=O)O; ξDab(3-OH) = NCC(O)C(N)C(=O)O; Orn = NCCC[CH](N)C(=O)O; NH(CH2)4NH2 = NCCCCN*

Legend:
[1] = tested on: Acinetobacter baumannii
Experimental: (§1) The minimal inhibitory concentrations (MIC) were determined according to the Clinical and Laboratory Standards Institute (CLSI) conditions guidelines detailed in Table 7. Assays were performed in triplicate.
(§2) Preparation of Inocula. Five to 10 well-isolated colonies were picked and resuspended in 3 ml sterile saline. The inoculum was re-suspended by vigorous shaking on a vortex mixer for 15 s. Turbidity was adjusted to McFarland standard 0.5 ([…]). The inoculum was further diluted in the appropriate media (Table 7) to give a final inoculum in each well of ˜2-8×10^5 CFU/ml.
(§3) Addition of Test Article. Stock solutions of Odilomycin A or comparator were diluted in the appropriate media to give a maximum starting concentration of 50 μg/mL in the assay. 50 μL of medium was dispensed into each well in columns two to 12 of a 96 well plate. 100 μL of the appropriate test compound solution (100 μg/mL) was dispensed into each well in column one. In the case of M. catarrhalis, M. haemolytica and P. multocida these values were doubled (a final assay volume of 200 μL was used). […] Columns 11 and 12 served as positive (no drug or test article, inoculum added), and negative (no drug, test article, or inoculum added) growth controls respectively.
(§4) Addition of Bacterial Strains. 50 μL of each inoculum suspension was added to the appropriate wells, resulting in a final volume of 100 μL consisting of 50 μL diluted compound or diluents, and 50 μL of inoculum or broth alone.

[2] = tested on: Bacillus subtilis
Experimental: as §1, §2, §3, §4

[3] = tested on: Enterobacter cloacae
Experimental: as §1, §2, §3, §4

[4] = tested on: Enterococcus faecalis
Experimental: as §1, §2, §3, §4

[5] = tested on: Enterococcus faecium
Experimental: as §1, §2, §3, §4

[6] = tested on: Escherichia coli
Experimental: as §1, §2, §3, §4

[7] = tested on: Haemophilus influenzae
Experimental: as §1, §2, §3, §4

[8] = tested on: Klebsiella oxytoca
Experimental: as §1, §2, §3, §4

[9] = tested on: Klebsiella pneumoniae; conditions: K. pneumoniae
Experimental: as §1, §2, §3, §4

[10] = tested on: Mannheimia haemolytica
Experimental: as §1, §2, §3, §4

[11] = tested on: Moraxella catarrhalis
Experimental: as §1, §2, §3, §4

[12] = tested on: Pasteurella multocida
Experimental: as §1, §2, §3, §4

[13] = tested on: Proprionibacterium acnes; conditions: P. acnes ATCC 6919
Experimental: as §1, §2, §3, §4

[14] = tested on: Pseudomonas aeruginosa; conditions: for Antibacterial activity (MIC): unit not given in table (MICs in μg/mL)
Experimental: as §1, §2, §3, §4

[15] = tested on: Staphylococcus epidermidis
Experimental: as §1, §2, §3, §4

[16] = tested on: Stenotrophomonas maltophilia
Experimental: as §1, §2, §3, §4

[17] = tested on: Streptococcus pneumonia
Experimental: as §1, §2, §3, §4

[18] = tested on: Streptococcus pyogenes
Experimental: as §1, §2, §3, §4

[19] = tested on: Bacteroides fragilis; assay: microbe, parasite or virus in culture
Experimental: as §1, §2, §3, §4

[20] = tested on: Staphylococcus aureus; assay: microbe, parasite or virus in culture; conditions: for Antibacterial activity (MIC): unit not given in table (MICs in μg/mL)
Experimental: as §1, §2, §3, §4

[21] = tested on: S. aureus ATCC 13709; assay type: cell-based, Staphylococcus aureus; conditions: ATCC 13709, 24 h
Experimental: Minimal bactericidal concentrations (MBCs) were established by extending the MIC procedure to the evaluation of bactericidal activity. After 24 hours, 10 μL were drawn from the wells, serially diluted and then spotted onto suitable agar plates. The plates were incubated at 37° C. overnight. […] All the experiments were done in triplicate.

[22] = tested on: S. aureus ATCC 13709; assay: Bacterial killing curves (time-to-kill); assay type: cell-based, Staphylococcus aureus; conditions: growing S. aureus ATCC 13709, at four-fold the MIC
Experimental: Bacterial killing curves were carried out by inoculating S. aureus ATCC 13709 and P. aeruginosa ATCC 27853 with Odilomycin A concentration equal to four-fold the MIC. […] S. aureus and P. aeruginosa inoculi were prepared from colonies grown overnight in MHB. Antibiotics concentrations in the flask were adjusted in MHB according to the desired concentration. Culture tubes containing 10 mL were inoculated with S. aureus or P. aeruginosa at an approximate inoculum of 10^5 CFU/mL. Samples were drawn and bacteria were counted at 0, 1, 2, 3, 4, 6 and 24 h of incubation at 37° C. Thus, after vortexing the culture tubes, two 50 μL samples were removed and serially diluted with MHB. After each dilution step, 20 μL was plated onto LB agar plates, which were incubated for 24 h at 37° C. Afterwards the colonies were counted and back-extrapolated to the original volume to determine the initial concentration (CFU/mL).

## N=C(N)NCC/C=C(\NC(=O)C(CCC(O)CN)NC(=O)C(Cc1cnc[nH]1)NC(=O)C1CCCN1C(=O)C(CCCN)NC(=O)CNC(=O)C(NC(=O)C(NC(=O)C(N)CCCCN)C(O)CN)C(O)CN)C(=O)NC(CCC(O)CN)C(=O)NCCCCN (stereo not drawn) [Odilomycin A, Lys-(3-hydroxy-2,4-diaminobutanoic acid)-(3-hydroxy-2,4-diaminobutanoic acid)-Gly-Ornithine-Pro-His-(5-hydroxylysine)-(2,3-dehydroarginine)-(5-hydroxylysine)-(1,4-diaminobutane)] (H-K[ξDab(3-OH)][ξDab(3-OH)]G[Orn]PH[X1][ΔZArg][X1]-{NH(CH2)4NH2}; configuration not given here)
[1]
  MIC: 6.25 µg/mL (≈ 4.82 µM)
  MICs: < 10 µg/mL
[2]
  MIC: <0.20 µg/mL
  MICs: < 1 µg/mL
[3]
  MIC: 1.56 µg/mL (≈ 1.2 µM)
  MICs: < 10 µg/mL
[4]
  MIC: >50.0 µg/mL
[4]; E. faecalis
  antibacterial activity: Weak or no antibacterial activity
[5]
  MIC: 25.0 µg/mL (≈ 19.3 µM)
[5]; E. faecium
  antibacterial activity: Weak or no antibacterial activity
[6]
  MICs: < 10 µg/mL
[6]; E. coli CTX-M14 clinical isolate AEC7
  MIC: 3.13 µg/mL (≈ 2.41 µM)
[6]; E. coli CTX-M15 clinical isolate MEC23
  MIC: 3.13 µg/mL (≈ 2.41 µM)
[7]
  MIC: 12.5 µg/mL (≈ 9.64 µM)
[8]
  MIC: 0.39 µg/mL (≈ 0.301 µM)
[8]; K. oxytoca
  antibacterial activity: strong
[9]
  antibacterial activity: strong
[10]
  MIC: 50.0 µg/mL (≈ 38.6 µM)
[11]
  MIC: 1.56 µg/mL (≈ 1.2 µM)
  MICs: < 10 µg/mL
[12]
  MIC: 25.0 µg/mL (≈ 19.3 µM)
[13]
  MIC: 3.13 µg/mL (≈ 2.41 µM)
[14]
  MIC: 3.12 µg/mL (≈ 2.41 µM)
  MICs: < 10 µg/mL
[14]; P. aeruginosa ATCC 27853
  MIC: 3.13 µg/mL (≈ 2.41 µM)
[14]; P. aeruginosa multiresistant clinical isolate 5618
  Antibacterial activity (MIC): 6.25
[14]; P. aeruginosa multiresistant clinical isolate 35170
  Antibacterial activity (MIC): >50
[14]; P. aeruginosa multiresistant clinical isolate 42162
  Antibacterial activity (MIC): 25
[14]; P. aeruginosa multiresistant clinical isolate 401681
  Antibacterial activity (MIC): 25
[14]; P. aeruginosa multiresistant clinical isolate 512232
  Antibacterial activity (MIC): 3.12
[15]
  MIC: <0.20 µg/mL
  MICs: < 1 µg/mL
[16]
  MIC: 6.25 µg/mL (≈ 4.82 µM)
  MICs: < 10 µg/mL
[17]
  MIC: >50.0 µg/mL
[17]; S. pneumoniae
  antibacterial activity: Weak or no antibacterial activity
[18]
  MIC: 50.0 µg/mL (≈ 38.6 µM)
[18]; S. pyogenes
  antibacterial activity: Weak or no antibacterial activity
[19]
  MIC: 1.56 µg/mL (≈ 1.2 µM)
[20]
  MICs: < 1 µg/mL
[20]; S. aureus multiresistant clinical isolate 16666
  Antibacterial activity (MIC): <0.19
[20]; S. aureus multiresistant clinical isolate 20364
  Antibacterial activity (MIC): 0.78
[20]; S. aureus multiresistant clinical isolate 20681
  Antibacterial activity (MIC): 1.56
[20]; S. aureus multiresistant clinical isolate 21840
  Antibacterial activity (MIC): 0.39
[20]; S. aureus multiresistant clinical isolate 23305
  Antibacterial activity (MIC): 0.78
[21]
  MBC: 0.78 µg/mL (≈ 0.602 µM)
[22]
  Time to kill 100% of bacteria: ≤ 3 h
